According to patent publication US20060094790A1, “Use of sphingosine kinase activator as skin disease treating agent and method for treating skin diseases using the same” (priority 2004, published 2006):

What was measured:
RBL-2H3 cell line = assay: Intracellular calcium movement (fura-2 fluorescence); format: cell-based; details: RBL-2H3 cells, fura-2, FIGS. 1a to 1d
Method: First, the following experiment for calcium movement was performed in order to determine whether the above sphingosine kinase activator compounds activate sphingosine-1-phosphate, so as to cause intracellular calcium movement, which is a typical activity specific to sphingosine-1-phosphate.
The sphingosine kinase activator compounds were determined for capability of inducing intracellular calcium movement by using a RBL-2H3 cell line, which is one of the typical cell lines showing intracellular calcium movement. The cells are cultured by using an RPMI 1640 culture medium and the cells were washed simultaneously with removal of the medium. Then, 10 μM of fura-2/Am and 250 μl M of sulfinpyrazone were added thereto, followed by incubation for 30 minutes. Cell pellets were obtained by centrifugal separation and the cell pellets were dispersed in Ca^2+-free Locke's solution. The dispersion was divided into a unit of 1×10^6 cells for use in treating samples. Next, the cells were introduced into a cuvet of a fluorescence microscope, each sphingosine kinase activator compound was added thereto, and intracellular calcium movement was observed by the fluorescence microscope (RF-5310PC, Spectrofluoro photometer, SHIMADZU). When intracellular calcium ions are detected, they cause fluorescence by bonding with fura-2. Therefore, a degree of calcium movement caused by a sample was evaluated by calculating a difference between the measurement of fura-2 ([…]) bonded with calcium and that of non-bonded fura-2 ([…]).

sphingosine kinase = target: T1, sphingosine kinase (Mus musculus, UniProt Q8CI15); assay: Activation of sphingosine kinase (C17-sphingosine-1-phosphate production, HPLC); format: cell-based; details: F9-12 cells, 24 hours, 50 μM compound, PMA 300 nM; for C17-SIP Production: non-treated control 51.72; for increase in production of sphingosine-1-phosphate: versus non-treated control
T1 construct: host or cells: F9-12 cells
T1 sequence (Q8CI15 1-381 isoform Q8CI15-3): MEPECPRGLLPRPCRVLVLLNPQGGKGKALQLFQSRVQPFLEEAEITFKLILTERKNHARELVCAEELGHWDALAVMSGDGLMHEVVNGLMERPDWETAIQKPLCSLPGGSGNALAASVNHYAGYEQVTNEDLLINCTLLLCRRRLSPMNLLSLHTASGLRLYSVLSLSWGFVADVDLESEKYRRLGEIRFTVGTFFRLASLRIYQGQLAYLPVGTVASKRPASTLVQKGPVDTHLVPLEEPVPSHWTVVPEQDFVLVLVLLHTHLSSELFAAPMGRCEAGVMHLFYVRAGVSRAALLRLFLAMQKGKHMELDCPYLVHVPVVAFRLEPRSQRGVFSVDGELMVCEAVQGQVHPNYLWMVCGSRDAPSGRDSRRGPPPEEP
Method: The following test for activation of sphingosine kinase was performed to determine whether the effects of the above compounds upon intracellular calcium signal transfer as described in Example 1 were caused by activation of sphingosine kinase.
F9-12 cells were treated with 300 nM of PMA ([…]) as positive control, and 50 μM of each of K6PC4 and K6PC-5 for 24 hours and collected. Then, activity of sphingosine kinase was measured as production of C17-sphingosine-1-phosphate based on 50 μg of protein. Sphingosine-1-phospate was extracted from the collected cells by the steps of: (1) treating with trypsin-EDTA, (2) centrifugal separation at 1,500 rpm for 10 minutes, and (3) washing with PBS, followed by freeze-drying. Then, PBS was added to the freeze-dried product and the resultant product was treated with ultrasonic waves to destroy cells. Sphingosine-1-phosphate was determined by HPLC, and OPA (o-phthalaldehyde) reagent and boric acid buffer were added to the extracted sample and the mixture was reacted at room temperature for 20 minutes. For the HPLC quantitive analysis, fluorescence intensity was measured at each wavelength of 340 nm and 455 nm with a solution in 90% acetonitrile, and a ratio to the internal standard was calculated.

keratinocytes = assay: Differentiation of keratinocytes (western blotting of involucrin and keratin-1); format: cell-based; details: 10 μM, 48 hours, FIG. 2
Method: In order to evaluate the effect of the above compound according to the present invention upon differentiation of keratinocytes, each of K6PC4, K6PC-5, K6PC-7 and K6PC-9 was dissolved in DMSO at a concentration of 10 μM and used as sample. Evaluation was performed by using the western blotting method. As differentiation markers, involucrin and keratine-1, which were differentiation markers of keratinocytes, were measured. Next, 48 hours after the treatment of samples, the culture solution was discarded and the cells were washed with PBS and collected by filtering. The collected cells were washed again and subjected to centrifugal separation to remove supernatant. The cells were dissolved in a solvent and subjected to centrifugal separation at 12,000 rpm for 10 minutes, thereby removing cell membranes, etc. Protein concentration was determined by the Bradford method. Proteins were separated by mini gel type SDS-PAGE (polyacrylamide gel electrohoresis) and transferred to a PVDF (polyvinylidene fluoride) membrane at 100V for 1 hour, so that gel-like proteins were subjected to blotting with a transfer membrane. Then, the membrane was colored with Ponceau S solution to determine whether transfer was accomplished or not. The membrane was blocked by using TTBS (TBS+0.1% Tween 20) solution containing 5% non-fat dried milk. In order to check the amount of involucrin as differentiation marker of keratinocytes, primary antibody involucrin (Neomarkers Co.) was diluted at a ratio of about 1/200 to 1.400, and keratin-1 (Covance Co.) was diluted at a ratio of about 1/1000. Reactions were performed overnight at 4° C. As secondary antibody, anti-mouse IgG and anti-rabbit IgG combined with horseradish peroxidase (HRP) was diluted at a ratio of 1:2000. Then, the secondary antibody was bonded to the primary antibody by making them react at room temperature for 1 hour. The membrane was washed with TTBS three times, reacted with an ECL substrate (Amersham Co.) for 1-3 minutes, and exposed to X-ray films.

fibroblasts = assay: Collagen synthesis in fibroblasts (PICP, collagen measuring kit); format: cell-based; details: 72 hours; for Amount of PICP produced in fibroblasts (average ± SEM): non-treated control 47.1 ± 9.7; for collagen synthesis increase as compared to the non-treated control: fibroblasts, 0.3 or 1.0 μg/ml (concentration not given)
Method: The following experiment was performed by using fibroblasts in order to evaluate the effect of sphingosine kinase activator upon collagen synthesis.
Each of K6PC4, K6PC-5, K6PC-7 and K6PC-9 was dissolved in DMSO at a concentration of 0.3 and 1.0 μg/ml. The solutions were used as samples and analyzed for collagen synthesis after incubation for 72 hours. 72 hours after the treatment of the sample, culture solution was discarded, cells were washed with serum-free DMEM three times, and cells were cultured again by using flesh serum-free DMEM. After incubation, supernatant in each well was combined and analyzed for the amount of PICP (procollagen type I C-peptide) by using a collagen measuring kit. The standard solution contained in the collagen measuring kit was diluted with a sample and absorption at 450 nm was measured to construct a standard concentration curve (see the following Table 2).
To an antibody-coated microtiter plate comprising a primary collagen antibody applied unifomrily thereto, 100 μl of an antibody-POD conjugate solution and the cell supernatant collected as described above were added, followed by incubation at 37° C. for 3 hours, to induce an antigen-antibody reaction. Then, the reaction mixture was subjected to washing and color developing. After the reaction, the reaction mixture developed a yellow color, wherein the yellowness depended on reaction degrees. Also, 96 well plates developing a yellow color were determined at 450 nm by using a microtiter plate reader.

hairless mouse = format: in vivo; details: mouse, in vivo
Text: To evaluate effect of the sphingosine kinase activator upon inhibition of steroid side effects, a steroid was applied to a hairless mouse. Typically, side effects caused by long-term or excessive dose of steroids include skin atrophy expressed by thinning of skin and weakening of skin functions, and a rebound phenomenon including reoccurrence of conditions caused by stopping use of steroids. It is reported that the main cause for such side effects is inhibition of fibroblast activity and a decrease in collagen production (S. Hammer et al., J. Cell. Biochem, 91, 840-851, 2004), Therefore, it is expected that the compound according to the present invention enhances collagen synthesis and differentiation of keratinocytes, and thus inhibits such side effects caused by steroids. To perform a test, a steroid, i.e. 0.05% chlobetason-17-propionate, and […]-5 according to the present invention (1.0% in PEG:EtOH=7:3) were applied to a hairless mouse and changes in the skin were observed. The treating agents were applied to the back of a hairless mouse 9 times per day and the tissue was collected. Then, the epidermis and dermis were observed by carrying out the H & E staining method (hematoxylin and eosin staining) known to one skilled in the art.

| Compound | intracellular calcium movement (RBL-2H3 cell line) | C17-SIP Production (sphingosine kinase) [pmol/min/mg] | increase in production of sphingosine-1-phosphate (sphingosine kinase) | expression of differentiation markers (involucrin, keratin-1) (keratinocytes) | Amount of PICP produced in fibroblasts (average ± SEM) (fibroblasts; 0.3 μg/ml) | Amount of PICP produced in fibroblasts (average ± SEM) (fibroblasts; 1.0 μg/ml) | collagen synthesis increase as compared to the non-treated control (fibroblasts) | changes in epidermis and dermis (steroid applied alone) (hairless mouse) |
| --- | --- | --- | --- | --- | --- | --- | --- | --- |
| CCCCCCCC(=O)C(CCCCCC)C(=O)NCCO (stereo not drawn) [K6PC-9, N-ethanol-2-hexyl-3-oxo-decanamide] | caused intracellular calcium movement | 66.72 | about 30% | expressed the differentiation markers | 95.0 ± 5.2 | 86.7 ± 8.2 | about 2.0 times |  |
| CCCCCCCC(=O)C(CCCCCC)C(=O)NC(C)(CO)CO (stereo not drawn) [K6PC-7, N-(2-methyl-1,3-dihydroxyisopropyl)-2-hexyl-3-oxo-decanamide] | caused intracellular calcium movement | 75.51 | about 46% | expressed the differentiation markers | 90.3 ± 12.5 | 87.3 ± 14.9 | about 1.9 times |  |
| CCCCCCCCCCCCCC(=O)O[C@@H]1[C@@H](C)[C@@]2(O)[C@@H](C=C(CO)C[C@]3(O)C(=O)C(C)=C[C@@H]23)[C@@H]2C(C)(C)[C@]12OC(C)=O [PMA, phorbol microstate acetate, reference compound] |  | 76.76 | about 48% |  |  |  |  |  |
| CCC(=O)O[C@]1(C(=O)CCl)[C@@H](C)C[C@H]2[C@@H]3CCC4=CC(=O)C=C[C@]4(C)[C@@]3(F)[C@@H](O)C[C@@]21C [chlobetason-17-propionate, reference compound] |  |  |  |  |  |  |  | significant thinning of the epidermis and abnormal changes in the dermis |
| CCCCCCCC(=O)C(CCCCCC)C(=O)NCC(O)CO (stereo not drawn) [K6PC-4, N-(2,3-dihydroxypropyl)-2-hexyl-3-oxo-decanamide] | caused intracellular calcium movement | 67.69 | about 30% | expressed the differentiation markers | 62.01 ± 2.5 | 80.51 ± 4.4 | about 1.7 times |  |
